The record followed here is patent US10933135B2, “Methods for the treatment of cardiac hypertrophy” (UNIVERSITY OF CINCINNATI, priority 2016, dated 2021).

One assay relates to NFAT. As to the kind of experiment: NFAT-luciferase reporter assay in NRVMs. Type of assay: cell-based, rat. The following applies: for effect on basal NFAT activity: inhibitor at its IC50, without PE; for NFAT reporter activity, fold vs. vehicle control: 24 hours. How it is done:
NRVMs were transfected with 75 ng per well (in a 96-well plate) of NFAT-luciferase reporter plasmid acquired from AddGene (51941) (B. J. Wilkins et al., Calcineurin/NFAT coupling participates in pathological, but not physiological, cardiac hypertrophy, Circ. Res. 94 (2004) 110-118. doi:10.1161/01.RES.0000109415.17511.18, the entire disclosure of which is incorporated herein by this citation). 48 hours after transfection, cells were treated with 10 μM PE for 24 hours to induce NFAT reporter activity. To quantify luciferase reporter expression, cells were rinsed with sterile PBS and then lysed with 50 μL Cell Lysis Buffer (Promega) for 5 min at room temperature, followed by addition of 100 μL luciferase assay reagent (Promega); luminescence was read immediately on the BioTek Cytation 3 image reader. HuR inhibitors were previously identified by Wu et. al. (X. Wu et al., Identification and Validation of Novel Small Molecule Disruptors of HuR-mRNA Interaction, ACS Chem. Biol. (2015) 150317154550000-9. doi:10.1021/cb500851u. the entire disclosure of which is incorporated herein by this citation), and used here as described.
(A reporter such as luciferase makes a cellular process visible.)

The next assay deals with HuR-RNA binding (Homo sapiens, UniProt Q15717). As to the kind of experiment: Plasmonic nanoparticle LSPR assay of HuR-RNA binding. Conditions: gold nanoparticle arrays, target RNA SEQ ID NO 7, recombinant HuR protein.
Sequence of HuR-RNA binding (Q15717 whole entry): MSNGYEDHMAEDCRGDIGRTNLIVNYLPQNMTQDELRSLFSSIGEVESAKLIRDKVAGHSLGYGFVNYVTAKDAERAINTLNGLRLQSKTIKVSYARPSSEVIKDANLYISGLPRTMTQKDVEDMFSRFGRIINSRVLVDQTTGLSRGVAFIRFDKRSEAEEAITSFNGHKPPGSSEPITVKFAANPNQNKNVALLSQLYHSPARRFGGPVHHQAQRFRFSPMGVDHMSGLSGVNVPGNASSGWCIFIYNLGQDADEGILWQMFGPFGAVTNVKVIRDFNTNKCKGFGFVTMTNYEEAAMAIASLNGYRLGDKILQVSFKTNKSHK
Assay [1] deals with pressure overload (aortic constriction) mouse model of heart failure. As to the kind of experiment: Aortic constriction (TAC) pressure overload mouse model of cardiac hypertrophy and heart failure. The following applies: TAC mice. It counts as in vivo. On the procedure:
FIG. 7A-C. KH-3 reduces ventricular dilation and improves ejection fraction in a pressure overload (aortic constriction) mouse model of heart failure. Mice (N=10) were subjected to aortic constriction (TAC) to induce cardiac hypertrophy and heart failure. After week 4, they were randomized to receive either KH-3 (50 mg/kg 3×/week) or Vehicle (5 mice to each group). KH-3 is a small molecule inhibitor of HuR-mRNA interaction that is available from.
FIG. 8A-C. KH-3 reduces ventricular dilation and improves ejection fraction in a pressure overload (aortic constriction) mouse model of heart failure.

The test system of assay [2] is neonatal rat ventricular myocytes (NRVMs). Put plainly: Hypertrophic cell growth of NRVMs, cell area by WGA staining. Type of assay: cell-based. The following applies: 10 μM PE for 24 hr, vs vehicle treated control cells. An excerpt:
Neonatal rat ventricular myocytes (NRVMs) were isolated using collagenase digestion and adhesion differential from fibroblasts as described ([…]. Moore-Morris, S. Lange, Isolation and culture of neonatal mouse cardiomyocytes, J Vis Exp. (2013) e50154-e50154. doi:10.3791/50154, the entire disclosure of which is incorporated herein by this citation). Briefly, Sprague Dawley neonatal rats (1-2 days old) (Taconic) were decapitated and the hearts were isolated. Following removal of the atria, the ventricles were cut into small pieces and digested first in 0.05% trypsin/EDTA (Corning) overnight, then in collagenase II (Gibco) for 30 minutes. Cells were then spun at 100×g followed by a 40 minute pre-plating process on non-treated plates to allow the fibroblasts to adhere. The non-adherent NRVMs were then transferred to cell culture-treated dishes in MEM alpha media (Gibco) with 10% FBS. […] All slides were imaged with the BioTek Cytation 3 image reader and quantitative assessment of HuR translocation was measured as the ratio of cytoplasmic to nuclear fluorescent intensity (adjusted for mean background fluorescence and integrated area) using ImageJ.

In the next assay the test system is HuR. Put plainly: HuR nucleo-cytoplasmic translocation by immunostaining in NRVMs. It counts as cell-based, rat. Conditions: for HuR cytoplasmic translocation, fluorescent intensity ratio: agonist alone (PE 10 μM or AngII 100 nM), within 15 minutes (printed 15 hr). An excerpt: All antibodies were made up in 0.6% BSA in PBS. For wheat germ agglutinin (WGA) staining, a Texas Red-X conjugate was used per manufacturer's instructions (ThermoFisher). […]

The test system of the next assay is RCAN1. Put plainly: Expression of the NFAT target gene RCAN1 by qRT-PCR in NRVMs. It counts as cell-based, rat. The following applies: PE treated. How it is done:
(§1) RNA was isolated using a Macherey-Nagel NucleoSpin RNA kit and cDNA was synthesized using a BioScript All-in-One cDNA Synthesis SuperMix (Biotool). Samples were run on Stratagene Mx3005P (Agilent Technologies) using SYBR Green qPCR Master Mix (Biotool) to assess levels of GAPDH, ANF (atrial natriuretic factor), and RCAN1 (Regulator of Calcineurin 1). Results were analyzed using the ΔΔCt method (K. J. Livak, T. D. Schmittgen, Analysis of relative gene expression data using real-time quantitative PCR and the 2(-Delta Delta C(T)) Method, Methods. 25 (2001) 402-408. doi:10.1006/meth.2001.1262, the entire disclosure of which is incorporated herein by this citation). Primers are as listed: […]
(In general: Quantitative PCR measures a nucleic acid by following its amplification.)

The next assay concerns ANF. As to the kind of experiment: ANF (hypertrophic marker gene) expression by qRT-PCR in NRVMs. Type of assay: cell-based, rat. The following applies: vehicle+PE, 24 hr. How it is done: as §1
In the next assay the test system is PKC. Put plainly: PKC substrate phosphorylation in NRVMs. Type of assay: cell-based, rat. Conditions: data not shown.
Setting [3] is: inhibitor at its IC50 simultaneously with PE.
The mark [4] stands for this setting: 50 mg/kg 3×/week from week 4, vs Vehicle.

“And” between values parts separate entries of the source, which are not always exact repeats. Equal values may be shown once. “Also recorded” adds a separate entry of the source.

Description for HuR-RNA binding: As shown schematically in FIG. 9A-B, a pattern for either microfluidic channels or a spot plate is first made on the substrate using photolithography. Next, the hole mask procedure is carried out on top of the patterned photoresist to make the desired nanoparticle array. Briefly, this procedure involves spin coating a layer of poly(methylmethacrylate) (PMMA) followed by a layer of poly(diallyldimethylammonium chloride) (PDDA). Next, polystyrene spheres of a desired size are drop-coated onto the top of the polymer layers and a layer of 5 nm of gold is deposited over the whole assembly. After removal of the polystyrene spheres by tape-stripping, the masks are subjected to oxygen plasma etching to generate holes the same size as the polystyrene spheres. Metals are then deposited into these holes and in the last step, both the PMMA/PDDA polymer mask and the photoresist are removed using acetone, to create nanoparticle arrays in a desired pattern on the substrate. […] The PDMS layer was used to create the channels for the microfluidic devices and to prevent solution migration from spot to spot in the spot plates.
Next a target RNA strand containing a DNA hybridizing region, which binds via base pair matching with the ssDNA on the nanoparticle, and a hairpin loop containing a HuR target binding site. […] Last, the HuR protein is added and binds to its target site within the RNA hairpin loop. […]

As for `CCN(CC)C(=O)CC(c1cc(OC)c(OC)c(OC)c1)c1c(OC)cc(OC)c2c(-c3ccccc3)cc(=O)oc12` (centres unmarked) [CMLD-1], the “effect on basal NFAT activity” value in the assay on NFAT is “no significant effect”. Besides, the “NFAT reporter activity, fold vs. vehicle control” value with NFAT (setting [3]) is 1.19±0.30 fold. Further, the “leftward LSPR shift (disruption of HuR-RNA binding)” value at HuR-RNA binding came to 10 nm.
For the molecule `COc1ccc(C(CC(=O)N2CCCC2)c2c(OC)cc(OC)c3c(-c4ccccc4)cc(=O)oc23)cc1` (centres unmarked) [CMLD-2], the “effect on basal NFAT activity” value in the assay on NFAT is recorded as “no significant effect”. Moreover, the “NFAT reporter activity, fold vs. vehicle control” value in the assay on NFAT (setting [3]) amounted to 1.30±0.14 fold.
In the case of `CC(C)(C)c1ccc(S(=O)(=O)Nc2ccc3sc(/C=C/C(=O)NO)cc3c2)cc1` [KH-3], in assay [1], the “cardiac hypertrophy as heart weight to body weight” value is recorded as “strong trend toward a reduction in cardiac hypertrophy” and the “cardiac hypertrophy as heart weight to tibia length ratio” value is given as “strong trend toward a reduction in cardiac hypertrophy”. Also, in assay [1] (setting [4]), the “left ventricle (LV) diameter” value is on record as “blunts further increases”, the “left ventricle end diastolic volume (LV-EDV)” value is “preventing further increases” and the “left ventricle end systolic volume (LV-ESV)” value is “preventing further increases”. For the same molecule, the “cardiac function as measured by ejection fraction” value in assay [1] (pressure overload-induced hypertrophy) was “strong trend toward improving cardiac function”.
`CNC[C@H](O)c1cccc(O)c1` [PE, phenylephrine]: the “NFAT reporter activity, fold vs. vehicle control” value in the assay with NFAT (PE alone 10 μM) is 5.02±0.98 fold. Also, the “fold increase in cell area/size” value in assay [2] was 1.29±0.08 fold and 1.39±0.07 fold. In addition, in the assay with HuR (24 hr PE, vehicle control 0.71±0.04), the “HuR translocation, ratio of cytoplasmic to total cell fluorescent intensity” value worked out at 1.82±0.08. Also, the “HuR cytoplasmic translocation, fluorescent intensity ratio” value in the assay on HuR (vehicle control 0.71±0.04) is 1.05±0.06. Besides, the RCAN1 expression fold-induction with RCAN1 is recorded as 4.43±0.77 fold-induction. For the same molecule, in the assay with ANF, the ANF expression fold-induction came to 5.4±1.4 fold-induction.
Consider `CCCCCCCCCCCCCC(=O)O[C@@H]1[C@@H](C)[C@@]2(O)[C@@H](C=C(CO)C[C@]3(O)C(=O)C(C)=C[C@@H]23)[C@@H]2C(C)(C)[C@]12OC(C)=O` [PMA], for which the “HuR translocation after direct PKC activation” value in the assay on HuR (2 μM) is reported as “lack of HuR translocation”.
For `C[S+]([O-])c1ccc(-c2nc(-c3ccncc3)c(-c3ccc(F)cc3)[nH]2)cc1` (centres unmarked) [SB203580], the “HuR translocation, fluorescent intensity ratio” value in the assay with HuR (p38 inhibitor (10 μM) + AngII) was found to be 0.76±0.07; in the assay on HuR (p38 inhibitor (10 μM) + PE, PE alone 1.05±0.06) it was 0.68±0.08.
For `COc1ccc2c(c[n+](C)c3c4cc5c(cc4ccc23)OCO5)c1OC` [chelerythrine], in the assay with HuR (PKC inhibitor 10 μM), the “effect on PE/AngII-mediated HuR translocation” value is given as “had no effect on HuR translocation; also recorded: shows a trend to enhance HuR translocation”. In the assay on PKC, the PKC substrate phosphorylation entry is “a reduction of PKC substrate phosphorylation”.
Consider “angiotensin II [AngII, angiotensin receptor AT1 agonist]”, for which the “HuR cytoplasmic translocation, fluorescent intensity ratio” value with HuR (vehicle control 0.71±0.04) stood at 1.06±0.04.
